According to article PMC11274128, “Modification and Synergistic Studies of a Novel Frog Antimicrobial Peptide against Pseudomonas aeruginosa Biofilms” (Antibiotics, 2024):
Like-named read-outs stand apart in the source and are kept apart here. Bridge positions count the residues as written; N and C are the ends. Ends that are not written are not given here.

Legend:
S. aureus (ATCC 6538) = test: microbe, parasite or virus in culture; assay type: cell-based, Staphylococcus aureus; conditions: planktonic S. aureus ATCC 6538; for MIC: 37 °C, nine repeats of three independent experiments; for MBC: lowest concentration killing 99.9% of inoculum
Excerpt: (§1) The minimum inhibitory concentration (MIC) is the minimum concentration of an antimicrobial agent that prevents the visible growth of a bacterium or bacteria. The MIC is an important piece of data for research on new antimicrobial agents and helps in the effective selection of antibiotics to improve the success of treatment. The minimum bactericidal concentration (MBC) is defined as the lowest antibiotic concentration that kills 99.9% of the inoculum. This study mainly contained eight different microorganisms, which were Staphylococcus aureus (ATCC 6538), methicillin-resistant Staphylococcus aureus (NCTC 12493), Enterococcus faecalis (NCTC 12697), Escherichia coli (ATCC 8739), Klebsiella pneumoniae (ATCC 43816), Pseudomonas aeruginosa (ATCC CRM 9027), Acinetobacter baumannii (BAA 747), and Candida albicans (ATCC 10231). The bacteria were incubated in the compatible medium at 37 °C overnight.

MRSA (NCTC 12493) = test: microbe, parasite or virus in culture; assay type: cell-based, methicillin-resistant Staphylococcus aureus; conditions: planktonic MRSA NCTC 12493; for MIC: 37 °C, nine repeats of three independent experiments; for MBC: lowest concentration killing 99.9% of inoculum
Excerpt: as §1

E. faecalis (NCTC 12697) = test: microbe, parasite or virus in culture; assay type: cell-based, Enterococcus faecalis; conditions: planktonic E. faecalis NCTC 12697; for MIC: 37 °C, nine repeats of three independent experiments; for MBC: lowest concentration killing 99.9% of inoculum
Excerpt: as §1

E. coli (ATCC 8739) = test: microbe, parasite or virus in culture; assay type: cell-based, Escherichia coli; conditions: planktonic E. coli ATCC 8739; for MIC: 37 °C, nine repeats of three independent experiments; for MBC: lowest concentration killing 99.9% of inoculum
Excerpt: as §1

[1] = system: K. pneumoniae (ATCC 43816); test: microbe, parasite or virus in culture; assay type: cell-based, Klebsiella pneumoniae; conditions: planktonic K. pneumoniae ATCC 43816; for MIC: 37 °C, nine repeats of three independent experiments; for MBC: lowest concentration killing 99.9% of inoculum
Excerpt: as §1

[2] = system: P. aeruginosa (ATCC CRM 9027); test: microbe, parasite or virus in culture; assay type: cell-based, Pseudomonas aeruginosa; conditions: planktonic P. aeruginosa ATCC CRM 9027; for MIC: 37 °C, nine repeats of three independent experiments; for MBC: lowest concentration killing 99.9% of inoculum
Excerpt: as §1

A. baumannii (BAA 747) = test: microbe, parasite or virus in culture; assay type: cell-based, Acinetobacter baumannii; conditions: planktonic A. baumannii BAA 747; for MIC: 37 °C, nine repeats of three independent experiments; for MBC: lowest concentration killing 99.9% of inoculum
Excerpt: as §1

C. albicans (ATCC 10231) = assay type: cell-based, Candida albicans; conditions: yeast C. albicans ATCC 10231; for MIC: 37 °C, nine repeats of three independent experiments; for MBC: lowest concentration killing 99.9% of inoculum
Excerpt: as §1

G+ Bacteria = test: Geometric mean of MICs and TI value; assay type: cell-based; conditions: geometric mean of MICs against tested Gram-positive bacteria
Description: (§2) The therapeutic potential of antimicrobial agents was valued based on their selectivity toward bacteria in reference to erythrocytes. The TI value was calculated from the results of antibacterial and haemolysis experiments of peptides using the following formula:TI value = HC10 / GMMICs.
(§3) GM was the geometric mean of MICs against all tested bacteria.

G− Bacteria = test: Geometric mean of MICs and TI value; assay type: cell-based; conditions: geometric mean of MICs against tested Gram-negative bacteria
Description: as §2, §3

Yeast = test: Geometric mean of MICs and TI value; assay type: cell-based, Candida albicans; conditions: C. albicans ATCC 10231
Description: as §2, §3

horse red blood cells = horse red blood cells in PBS, 37 °C, 2 h, absorbance 570 nm; positive control 0.1% Triton
Description: The pure peptide was dissolved in PBS and then two-fold diluted to obtain a series of concentrations: 512, 256, 128, 64, 32, 16, 8, 4, and 2 μM. A positive control (0.1% Triton) and blank control (PBS) were used. Two millilitres of fresh horse red blood cells were washed in PBS until the supernatant became colourless and clear, and the mixture was then thoroughly mixed. Each mixture contained 100 μL of peptide solution or controls and 100 μL of horse red blood cells, which were then incubated at 37 °C for 2 h and centrifuged at 930× g for 10 min. Subsequently, 100 μL of supernatant from each tube was transferred into a 96-well plate, and the plate reader measured the absorbance at a wavelength of 570 nm. The haemolysis rate was calculated using the following formula:Percentage Haemolysis= (ASample − ABlank)/(APositive − ABlank) × 100%

Substance | MIC (S. aureus (ATCC 6538)) [µM] | MBC (S. aureus (ATCC 6538)) [µM] | MIC (MRSA (NCTC 12493)) [µM] | MBC (MRSA (NCTC 12493)) [µM] | MIC (E. faecalis (NCTC 12697)) [µM] | MBC (E. faecalis (NCTC 12697)) [µM] | MIC (E. coli (ATCC 8739); read-out: MIC) [µM] | MBC (E. coli (ATCC 8739); read-out: MBC) [µM] | MIC ([1]; read-out: MIC) [µM] | MBC ([1]; read-out: MBC) [µM] | MIC (A. baumannii (BAA 747)) [µM] | MBC (A. baumannii (BAA 747)) [µM] | MIC (C. albicans (ATCC 10231)) [µM] | MBC (C. albicans (ATCC 10231)) [µM] | GM (geometric mean of MICs), G+ Bacteria (G+ Bacteria) [µM] | GM (geometric mean of MICs), G− Bacteria (G− Bacteria) [µM] | GM (geometric mean of MICs), Yeast (Yeast) [µM] | HC10 (horse red blood cells) [µM] | MIC ([2]; read-out: MIC) [µM] | MBC ([2]; read-out: MBC) [µM] | further results
GLLSGVLGAGKKIVAGLSGRA [Peptide 1924-A] | 128 | > 128 | > 128 | > 128 | > 128 | > 128 | 64 | 128 | 64 | 128 | > 128 | > 128 | 64 | 128 | 203.19 | 107.63 | 64.00 | >256 | – | – | MIC [2]: 128 µM; MBC [2]: > 128 µM
H-GLLSGVLGAGKKIVGLSGR-OH [Peptide 1782-R] | > 128 | > 128 | > 128 | > 128 | > 128 | > 128 | – | – | – | – | > 128 | > 128 | > 128 | > 128 | 256.00 | 215.27 | 256.00 | >256 | – | – | MIC (E. coli (ATCC 8739)): 128 µM; MBC (E. coli (ATCC 8739)): > 128 µM; MIC [1]: > 128 µM; MBC [1]: > 128 µM; MIC [2]: > 128 µM; MBC [2]: > 128 µM
GLLSGVLGAGKKIVCGLSGR- [Peptide 1885-R] | 128 | > 128 | 64 | 64 | > 128 | > 128 | 32 | 64 | 32 | 64 | 128 | > 128 | > 128 | > 128 | 128.00 | 45.25 | 256.00 | >256 | 32 | 64 | –
GLLRGVLGAGKKIVCGLSGRC (disulfide 15-21 (inferred)) [Peptide 2057-C, N-terminus modified analogue of Nigrosin-6VL] | 128 | > 128 | – | – | > 128 | > 128 | 16 | 32 | 64 | 128 | > 128 | > 128 | > 128 | > 128 | 128.00 | 64.00 | 256.00 | >256 | 64 | 128 | MIC (MRSA (NCTC 12493); read-out: MIC): 64 µM; MBC (MRSA (NCTC 12493); read-out: MBC): 128 µM
GLLSGVLGAGKKIVGLSGRC [Peptide 1885-C] | > 128 | > 128 | > 128 | > 128 | > 128 | > 128 | 16 | 32 | 64 | 128 | > 128 | > 128 | > 128 | > 128 | 256.00 | 64.00 | 256.00 | >256 | 64 | 128 | –
